A word on the pIC50: it is −log10 of the IC50, conventionally taken in molar units.

pIC50: −log10 of the molar value.

This assay has as its target T1, KDM5A (Homo sapiens, UniProt P29375).
T1 construct: C-terminal FLAG-tagged KDM5A^1-1090 was purchased from BPS Biosciences; FLAG (C); purchased BPS Biosciences
T1 sequence (P29375 1-1090): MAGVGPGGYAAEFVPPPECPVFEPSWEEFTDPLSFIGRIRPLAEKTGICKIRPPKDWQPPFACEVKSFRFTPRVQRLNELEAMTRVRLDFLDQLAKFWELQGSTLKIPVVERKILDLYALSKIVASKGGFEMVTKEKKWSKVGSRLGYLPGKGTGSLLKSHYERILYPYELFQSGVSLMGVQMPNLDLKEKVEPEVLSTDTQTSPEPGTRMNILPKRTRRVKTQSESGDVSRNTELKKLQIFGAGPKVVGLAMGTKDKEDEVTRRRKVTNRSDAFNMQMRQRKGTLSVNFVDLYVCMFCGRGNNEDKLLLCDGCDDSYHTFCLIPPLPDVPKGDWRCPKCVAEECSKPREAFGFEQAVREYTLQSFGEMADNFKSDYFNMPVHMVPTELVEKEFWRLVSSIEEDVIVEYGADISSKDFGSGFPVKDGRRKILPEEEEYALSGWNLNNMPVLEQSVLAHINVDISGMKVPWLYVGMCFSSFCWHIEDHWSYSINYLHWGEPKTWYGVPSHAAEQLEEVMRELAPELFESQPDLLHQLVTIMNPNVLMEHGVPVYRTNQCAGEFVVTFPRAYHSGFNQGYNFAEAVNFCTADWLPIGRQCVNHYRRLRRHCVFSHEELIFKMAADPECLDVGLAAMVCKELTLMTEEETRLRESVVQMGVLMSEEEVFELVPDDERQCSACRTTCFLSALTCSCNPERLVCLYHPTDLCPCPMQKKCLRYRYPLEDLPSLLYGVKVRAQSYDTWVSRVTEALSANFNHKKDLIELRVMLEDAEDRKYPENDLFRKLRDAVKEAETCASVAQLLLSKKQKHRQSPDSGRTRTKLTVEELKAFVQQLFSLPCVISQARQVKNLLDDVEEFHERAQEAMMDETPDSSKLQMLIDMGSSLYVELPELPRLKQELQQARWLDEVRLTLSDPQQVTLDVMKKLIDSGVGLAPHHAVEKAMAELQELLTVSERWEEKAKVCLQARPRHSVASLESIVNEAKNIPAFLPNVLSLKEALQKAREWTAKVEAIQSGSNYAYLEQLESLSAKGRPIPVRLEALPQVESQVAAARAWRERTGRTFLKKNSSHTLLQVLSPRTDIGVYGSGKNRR
The assay can be described thus: KDM5A Assay (SAMDI mass spectrometry demethylase assay). The assay is classed as biochemical. Conditions: C-terminal FLAG-tagged KDM5A 1-1090; class symbols; read-out: 5A IC50. An outline of the steps: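 FLAG-tagged KDM5A 1-1090 (20 nM) preincubated 30 min with compound in pH 8.0 HEPES buffer with ascorbate, Fe(II), TCEP, then reacted 150 min at 25 °C with H3K4me3 peptide (250 nM) and 2-oxoglutarate (15 μM). Formic acid-quenched; SAMDI-MS substrate/product AUC conversion; IC50 from dose-response.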
For `O=C(O)c1ccncc1Nc1cc(-c2ccccc2)nn1-c1ccccc1` [Compound 21, 3-((1,3-Diphenyl-1H-pyrazol-5-yl)amino)isonicotinic acid], the negative-log IC50 (pIC50) is 6.00 to 7.00.

On to `CC(C)n1nc(-c2ccccc2)cc1Nc1cnccc1C(=O)O` [Compound 22, 3-((1-Isopropyl-3-phenyl-1H-pyrazol-5-yl)amino)isonicotinic acid], for which the pIC50 was 6.00 to 7.00.

As for `O=C(O)c1ccncc1Nc1cc(-c2ccccc2)nn1C1CCOCC1` [Compound 23, 3-((3-Phenyl-1-(tetrahydro-2H-pyran-4-yl)-1H-pyrazol-5-yl)amino)isonicotinic acid], the pIC50 was 5.00 to 6.00.

With `Cn1nc(-c2ccc(Cl)cc2)cc1Nc1cnccc1C(=O)O` [Compound 24, 3-((3-(4-Chlorophenyl)-1-methyl-1H-pyrazol-5-yl)amino) isonicotinic acid], the pIC50 is 7.00 to 9.00.

Consider `Cn1nc(-c2cccc(Cl)c2)cc1Nc1cnccc1C(=O)O` [Compound 25, 3-((3-(3-chlorophenyl)-1-methyl-1H-pyrazol-5-yl)amino) isonicotinic acid], for which the negative logarithm of the IC50 (pIC50) was 7.00 to 9.00.

Turning to `NCCn1nc(-c2ccccc2)cc1Nc1cnccc1C(=O)O` [Compound 26], the pIC50 is 5.00 to 6.00.

`COCCn1nc(-c2ccccc2)cc1Nc1cnccc1C(=O)O` [Compound 27, 3-((1-(2-Methoxyethyl)-3-phenyl-1H-pyrazol-5-yl)amino) isonicotinic acid]: the negative logarithm of the IC50 (pIC50) was 6.00 to 7.00.

On to `Cc1c(Nc2cnccc2C(=O)O)cnn1Cc1ccccc1` [Compound 33, 3-((1-benzyl-5-methyl-1H-pyrazol-4-yl)amino)isonicotinic acid], for which the pIC50 is 6.00 to 7.00.

As for `CN1CCN(CCn2cc(-c3ccccc3)c(Nc3cnccc3C(=O)O)n2)CC1` [Compound 34, 3-((1-(2-(4-Methylpiperazin-1-yl)ethyl)-4-phenyl-1H-pyrazol-3-yl)amino)isonicotinic acid], the pIC50 was 4.00 to 5.00.

`CN1CCN(CCn2ncc(-c3ccccc3)c2Nc2cnccc2C(=O)O)CC1` [Compound 35, 3-((1-(2-(4-methylpiperazin-1-yl)ethyl)-4-phenyl-1H-pyrazol-5-yl)amino)isonicotinic acid]: the negative logarithm of the IC50 (pIC50) was 7.00 to 9.00.

Regarding `CCn1nc(-c2ccccc2)cc1Nc1cnccc1C(=O)O` [Compound 36, 3-((1-Ethyl-3-phenyl-1H-pyrazol-5-yl)amino)isonicotinic acid], the pIC50 was 7.00 to 9.00.

Take `N[C@H]1CC[C@@H](n2nc(-c3ccccc3)cc2Nc2cnccc2C(=O)O)CC1` [Compound 37, 3-((1-((cis)-4-aminocyclohexyl)-3-phenyl-1H-pyrazol-5-yl)amino)isonicotinic acid]: the pIC50 was 5.00 to 6.00.

For `N[C@H]1CC[C@H](n2nc(-c3ccccc3)cc2Nc2cnccc2C(=O)O)CC1` [Compound 38, 3-((1-((trans)-4-aminocyclohexyl)-3-phenyl-1H-pyrazol-5-yl)amino)isonicotinic acid], the pIC50 was 5.00 to 6.00.

Consider `O=C(O)c1ccncc1Nc1cc(-c2ccccc2)nn1[C@H]1CC[C@H](O)CC1` [Compound 39, 3-((1-((trans)-4-hydroxycyclohexyl)-3-phenyl-1H-pyrazol-5-yl)amino)isonicotinic acid], for which the pIC50 is 4.00 to 5.00.

For the compound `O=C(O)c1ccncc1Nc1cc(-c2ccccc2)nn1[C@H]1CC[C@@H](O)CC1` [Compound 40, 3-((1-((cis)-4-Hydroxycyclohexyl)-3-phenyl-1H-pyrazol-5-yl)amino)isonicotinic acid], the pIC50 was 5.00 to 6.00.

For `O=C(O)c1ccncc1Nc1cn(-c2ccccc2)nc1-c1ccccc1` [Compound 41, 3-((1,3-Diphenyl-1H-pyrazol-4-yl)amino)isonicotinic acid], the pIC50 is 5.00 to 6.00.

For `O=C(O)c1ccncc1Nc1nn(-c2ccccc2)cc1-c1ccccc1` [Compound 42, 3-((1,4-diphenyl-1H-pyrazol-3-yl)amino)isonicotinic acid], the pIC50 was 6.00 to 7.00.

Consider `O=C(O)c1ccncc1Nc1c(-c2ccccc2)cnn1-c1ccccc1` [Compound 43, 3-((1,4-Diphenyl-1H-pyrazol-5-yl)amino)isonicotinic acid], for which the pIC50 is 4.00 to 5.00.

Regarding `O=C(O)c1ccncc1Nc1nn(CCN2CCC(F)(F)CC2)cc1-c1ccc(F)cc1` [Compound 45, 3-((1-(2-(4,4-difluoropiperidin-1-yl)ethyl)-4-(4-fluorophenyl)-1H-pyrazol-3-yl)amino)isonicotinic acid], the pIC50 is 7.00 to 9.00.

On to `O=C(O)c1ccncc1Nc1c(-c2ccc(F)cc2)cnn1CCN1CCC(F)(F)CC1` [Compound 46, 3-((1-(2-(4,4-difluoropiperidin-1-yl)ethyl)-4-(4-fluorophenyl)-1H-pyrazol-5-yl)amino) isonicotinic acid], for which the negative-log IC50 (pIC50) is 5.00 to 6.00.

For the compound `CN(C)CCCn1cc(-c2ccccc2)c(Nc2cnccc2C(=O)O)n1` [Compound 51, 3-((1-(3-(dimethylamino)propyl)-4-phenyl-1H-pyrazol-3-yl)amino) isonicotinic acid], the negative-log IC50 (pIC50) is 7.00 to 9.00.

Take `CN(C)CCCn1ncc(-c2ccccc2)c1Nc1cnccc1C(=O)O` [Compound 52, 3-((1-(3-(dimethylamino)propyl)-4-phenyl-1H-pyrazol-5-yl)amino) isonicotinic acid]: the negative logarithm of the IC50 (pIC50) was 5.00 to 6.00.

Take `Cc1c(-c2ccccc2)nn(C)c1Nc1cnccc1C(=O)O` [Compound 53, 3-((1,4-dimethyl-3-phenyl-1H-pyrazol-5-yl)amino)isonicotinic acid]: the pIC50 is 5.00 to 6.00.

`Cc1n[nH]c(-c2ccccc2)c1Nc1cnccc1C(=O)O` [Compound 55, 3-((5-methyl-3-phenyl-1H-pyrazol-4-yl)amino)isonicotinic acid]: the pIC50 was 5.00 to 6.00.

With `O=C(O)c1ccncc1Nc1cc(-c2ccccc2)nn1-c1ccncc1` [Compound 56, 3-((3-phenyl-1-(pyridin-4-yl)-1H-pyrazol-5-yl)amino) isonicotinic acid], the pIC50 was 5.00 to 6.00.

Turning to `O=C(O)c1ccncc1Nc1nn(CCN2CCC(F)(F)CC2)cc1C1CCCCC1` [Compound 57, 3-((4-cyclohexyl-1-(2-(4,4-difluoropiperidin-1-yl)ethyl)-1H-pyrazol-3-yl)amino)isonicotinic acid], the pIC50 is 6.00 to 7.00.

As to `CNC(=O)c1ccc(-n2ncc(Nc3cnccc3C(=O)O)c2C)cc1` [Compound 58, 3-((5-methyl-1-(4-(methylcarbamoyl)phenyl)-1H-pyrazol-4-yl)amino) isonicotinic acid], the pIC50 was 5.00 to 6.00.

As for `CNC(=O)c1cccc(-n2ncc(Nc3cnccc3C(=O)O)c2C)c1` [Compound 59, 3-((5-methyl-1-(3-(methylcarbamoyl)phenyl)-1H-pyrazol-4-yl)amino) isonicotinic acid], the pIC50 was 5.00 to 6.00.

In the case of `Cc1cc(Nc2cnccc2C(=O)O)nn1-c1ccccc1` [Compound 60, 3-((5-methyl-1-phenyl-1H-pyrazol-3-yl)amino)isonicotinic acid], the pIC50 was 5.00 to 6.00.

As to `Cc1cc(Nc2cnccc2C(=O)O)n(-c2ccccc2)n1` [Compound 61, 3-((3-methyl-1-phenyl-1H-pyrazol-5-yl)amino) isonicotinic acid], the pIC50 was 5.00 to 6.00.

In the case of `Cc1cn(-c2ccccc2)nc1Nc1cnccc1C(=O)O` [Compound 62, 3-((4-methyl-1-phenyl-1H-pyrazol-3-yl)amino) isonicotinic acid], the pIC50 is 7.00 to 9.00.

Consider `COc1ccccc1-n1cc(C)c(Nc2cnccc2C(=O)O)n1` [Compound 63, 3-((1-(2-methoxyphenyl)-4-methyl-1H-pyrazol-3-yl)amino) isonicotinic acid], for which the pIC50 is 7.00 to 9.00.

With `CN(C)CCn1cc(-c2ccccc2)c(Nc2cnccc2C(=O)O)n1` [Compound 64, 3-((1-(2-(dimethylamino)ethyl)-4-phenyl-1H-pyrazol-3-yl)amino)isonicotinic acid], the pIC50 is 7.00 to 9.00.

As for `CN(C)CCn1ncc(-c2ccccc2)c1Nc1cnccc1C(=O)O` [Compound 65, 3-((1-(2-(dimethylamino)ethyl)-4-phenyl-1H-pyrazol-5-yl)amino)isonicotinic acid], the pIC50 was 5.00 to 6.00.

On to `Cc1c(-c2ccccc2)nn(CCN2CCC(F)(F)CC2)c1Nc1cnccc1C(=O)O` [Compound 66, 3-((1-(2-(4,4-difluoropiperidin-1-yl)ethyl)-4-methyl-3-phenyl-1H-pyrazol-5-yl)amino)isonicotinic acid], for which the pIC50 was 4.00 to 5.00.

Source of the values: US20170291890A1 (Epizyme, Inc., priority 2014, published 2017).
